Assay results reported in the NIST ThermoML archive (doi:10.1016/j.jct.2018.01.024).
± gives the expanded uncertainty stated by the source.

Experiment: mn = molality of the nth substance listed, in mol/kg
Settings: Liquid, m2 = 0

O [water] + NC(N)=O
mass density (274.15 K, 101 kPa, Vibrating tube method): 999.899 ± 0.084 kg/m3
mass density (275.15 K, 101 kPa, Vibrating tube method): 999.94 ± 0.084 kg/m3
mass density (276.15 K, 101 kPa, Vibrating tube method): 999.964 ± 0.083 kg/m3
mass density (277.15 K, 101 kPa, Vibrating tube method): 999.972 ± 0.096 kg/m3
mass density (278.15 K, 101 kPa, Vibrating tube method): 999.964 ± 0.083 kg/m3
mass density (278.15 K, 10000 kPa, Constant-volume piezometry): 1004.78 ± 0.18 kg/m3
mass density (278.15 K, 25000 kPa, Constant-volume piezometry): 1011.88 ± 0.26 kg/m3
mass density (278.15 K, 50000 kPa, Constant-volume piezometry): 1023.2 ± 0.45 kg/m3
mass density (278.15 K, 75000 kPa, Constant-volume piezometry): 1033.92 ± 0.66 kg/m3
mass density (278.15 K, 100000 kPa, Constant-volume piezometry): 1044.08 ± 0.87 kg/m3
mass density (279.15 K, 101 kPa, Vibrating tube method): 999.94 ± 0.083 kg/m3
mass density (280.15 K, 101 kPa, Vibrating tube method): 999.901 ± 0.083 kg/m3
mass density (281.15 K, 101 kPa, Vibrating tube method): 999.848 ± 0.083 kg/m3
mass density (282.15 K, 101 kPa, Vibrating tube method): 999.781 ± 0.083 kg/m3
mass density (283.15 K, 101 kPa, Vibrating tube method): 999.699 ± 0.083 kg/m3
mass density (288.15 K, 10000 kPa, Constant-volume piezometry): 1003.66 ± 0.18 kg/m3
mass density (288.15 K, 25000 kPa, Constant-volume piezometry): 1010.42 ± 0.27 kg/m3
mass density (288.15 K, 50000 kPa, Constant-volume piezometry): 1021.21 ± 0.46 kg/m3
mass density (288.15 K, 75000 kPa, Constant-volume piezometry): 1031.47 ± 0.67 kg/m3
mass density (288.15 K, 100000 kPa, Constant-volume piezometry): 1041.23 ± 0.88 kg/m3
mass density (298.15 K, 10000 kPa, Constant-volume piezometry): 1001.46 ± 0.19 kg/m3
mass density (298.15 K, 25000 kPa, Constant-volume piezometry): 1007.99 ± 0.28 kg/m3
mass density (298.15 K, 50000 kPa, Constant-volume piezometry): 1018.44 ± 0.47 kg/m3
mass density (298.15 K, 75000 kPa, Constant-volume piezometry): 1028.38 ± 0.68 kg/m3
mass density (298.15 K, 100000 kPa, Constant-volume piezometry): 1037.86 ± 0.88 kg/m3
mass density (308.15 K, 10000 kPa, Constant-volume piezometry): 998.36 ± 0.2 kg/m3
mass density (308.15 K, 25000 kPa, Constant-volume piezometry): 1004.74 ± 0.29 kg/m3
mass density (308.15 K, 50000 kPa, Constant-volume piezometry): 1014.97 ± 0.48 kg/m3
mass density (308.15 K, 75000 kPa, Constant-volume piezometry): 1024.71 ± 0.69 kg/m3
mass density (308.15 K, 100000 kPa, Constant-volume piezometry): 1034.01 ± 0.89 kg/m3
mass density (323.15 K, 101 kPa, Vibrating tube method): 988.03 ± 0.087 kg/m3
mass density (323.15 K, 10000 kPa, Constant-volume piezometry): 992.3 ± 0.21 kg/m3
mass density (323.15 K, 25000 kPa, Constant-volume piezometry): 998.61 ± 0.3 kg/m3
mass density (323.15 K, 50000 kPa, Constant-volume piezometry): 1008.68 ± 0.5 kg/m3
mass density (323.15 K, 75000 kPa, Constant-volume piezometry): 1018.27 ± 0.7 kg/m3
mass density (323.15 K, 100000 kPa, Constant-volume piezometry): 1027.42 ± 0.91 kg/m3
mass density (333.15 K, 101 kPa, Vibrating tube method): 983.191 ± 0.087 kg/m3
